Test results as given in patent US11185488B2, “Skin external preparation composition for moisturizing skin containing 1,2,3,4,6-penta-O-galloyl-β-D-glucose” (AMOREPACIFIC CORPORATION, priority 2017, dated 2021).

How the values were obtained:
Type in all cases: cell-based
filaggrin = experiment: Gene expression level of filaggrin (RNA separation and RT-PCR); conditions: neonatal keratinocytes, 1 ppm, 2 days; for Increase in filaggrin expression(%): corrected to RPL13A
Method: Neonatal keratinocytes (obtained from Lonza) was dispensed into a 60 mm cell culture dish at a density of 1.25×10^6 cells/dish using KGM medium, and then cultured at 37° C. in a 5% CO2 incubator up to about 80% confluency. Then, eight compounds including PGG from soybean, green tea, ginseng, and other natural products were selected as test substances (Table 1), and the cells were treated with each of these compounds at 1 ppm and cultured for 2 days. After the culture, the medium was removed, and 1 ml of Trizol (Invitrogen) was added, and mRNA was isolated according to an RNA isolation method of Invitrogen. mRNA was quantified at 260 nm using an ultraviolet detector (Hewlett Packard), and RT-PCR (Reverse Transcription-Polymerase Chain Reaction) was performed. For genetic analysis of each sample, correction was performed based on the complementary gene, RPL13A, and the expression level of filaggrin for each sample is shown in Table 1 below.

involucrin (IVL) = experiment: Gene increase experiment for involucrin (IVL) (RNA isolation and RT-PCR); conditions: keratinocytes, 4 days, corrected to RPLP0, FIG. 2
Method: (§1) Neonatal keratinocytes was dispensed into a 60 mm cell culture dish at a density of 1.25×10^6 cells/dish using KGM medium, and then cultured at 37° C. in a 5% CO2 incubator up to about 80% confluency. Then, the keratinocytes were treated with 0.2 ppm or 1 ppm of PGG, cultured for 4 days. After the culture, the medium was removed and 1 ml of Trizol (Invitrogen) was added thereto, and mRNA was isolated according to the RNA isolation method of Invitrogen. After quantifying mRNA at 260 nm using a CV detector (HEWLETT PACKARD), RT-PCR (Reverse transcription-polymerase chain reaction) was performed by using the primers of LOR and IVL (LOR-HS01894962_s1, IVL HS00846307_s1, respectively, both of which were obtained from Life Technologies). For genetic analysis of each sample, the correction was performed based on the complementary gene, RPLP0, and the results are shown in Table 2 below.

loricrin (LOR) = experiment: Gene increase experiment for loricrin (LOR) (RNA isolation and RT-PCR); conditions: keratinocytes, 4 days, corrected to RPLP0, FIG. 2
Method: as §1

Neonatal keratinocytes = experiment: Evaluation of cytotoxicity of PGG (cell viability); conditions: PGG 0, 1, 2, 4 ppm, cultured 4 days, FIG. 1
Method: Neonatal keratinocytes (obtained from Lonza) was dispensed into a 60 mm cell culture dish at a density of 1.25×10^6 cells/dish using KGM medium, and then cultured at 37° C. in a 5% CO2 incubator up to about 80% confluency. Then, the cells were treated with PGG at concentrations of 0 ppm, 1 ppm, 2 ppm, and 4 ppm, cultured for 4 days, and then the viability of the cells was confirmed.

O=c1c(-c2ccc(O)cc2)coc2cc(O)c(O)cc12 [6,7,4′-trihydroxyisoflavone]
Increase in filaggrin expression(%) (filaggrin): 103%

O=c1c(-c2ccc(O)c(O)c2)coc2cc(O)ccc12 [7,3′,4′-trihydroxyisoflavone]
Increase in filaggrin expression(%) (filaggrin): 110%

Oc1cc(O)c2c(c1)O[C@H](c1ccc(O)c(O)c1)[C@H](O)C2 [(−)-Epicatechin(EC), (−)-Epicatechin]
Increase in filaggrin expression(%) (filaggrin): 108%

C[C@]12C[C@@H](O)[C@@H]3C[C@@]1(O[C@@H]1O[C@H](CO)[C@@H](O)[C@H](O)[C@H]1O)[C@@]3(COC(=O)c1ccccc1)C(=O)O2 [Albiflorin]
Increase in filaggrin expression(%) (filaggrin): 107%

O=c1c(O[C@@H]2O[C@H](CO)[C@@H](O)[C@H](O)[C@H]2O)c(-c2ccc(O)cc2)oc2cc(O)cc(O)c12 [Astragalin]
Increase in filaggrin expression(%) (filaggrin): 105%

O=C(OC[C@H]1O[C@@H](OC(=O)c2cc(O)c(O)c(O)c2)[C@H](OC(=O)c2cc(O)c(O)c(O)c2)[C@@H](OC(=O)c2cc(O)c(O)c(O)c2)[C@@H]1OC(=O)c1cc(O)c(O)c(O)c1)c1cc(O)c(O)c(O)c1 [PGG, 1,2,3,4,6-penta-O-galloyl-β-D-glucose]
expression level of involucrin gene compared to control group (involucrin (IVL); 0.2 ppm): three-fold or more increase | increase of involucrin gene compared to control group (involucrin (IVL); 1 ppm): 5 times | expression level of loricrin gene compared to control group (loricrin (LOR); 0.2 ppm): almost no difference compared to the control group | increase of loricrin gene compared to control group (loricrin (LOR); 1 ppm): ≥ 2 times | rate of increase in the expression of filaggrin versus control group (filaggrin): more than 2 times | Increase in filaggrin expression(%) (filaggrin): 229% | cell viability (Neonatal keratinocytes): no significant difference in cell viability

C[C@@]12C[C@@]3(O)O[C@@H](O1)[C@]1(COC(=O)c4ccccc4)[C@H]3C[C@@]12O[C@@H]1O[C@H](CO)[C@@H](O)[C@H](O)[C@H]1O [Paeoniflorin]
Increase in filaggrin expression(%) (filaggrin): 116%

COc1cc([C@H]2OC[C@H]3[C@@H]2CO[C@@H]3c2cc(OC)c(O)c(OC)c2)cc(OC)c1O [Syringaresinol]
Increase in filaggrin expression(%) (filaggrin): 103%
